Test results as given in PMC10111423, “Antimalarial Imidazopyridines Incorporating an Intramolecular Hydrogen Bonding Motif: Medicinal Chemistry and Mechanistic Studies” (ACS Infectious Diseases, 2023).

Assays:
[1] = test system: Chinese hamster ovarian (CHO) cell line; assay: In vitro cytotoxicity MTT assay; format: cell-based; settings: CHO vs PfNF54
Procedure: (§1) In vitro cytotoxicity was performed on the Chinese Hamster Ovarian cell line by measuring cellular growth and survival calorimetrically through the MTT assay.[29],[30] The formation of tetrazolium salt was used as a measure of chemosensitivity and growth. (Details of this assay is described in the Supporting Information.) page 19: et al, 1993). The test samples were prepared to a 10 mmol/L stock solution in 100% DMSO. Samples were tested as a suspension if not completely dissolved. Further dilutions to the desired starting concentration were freshly prepared in growth media on each occasion of the experiment. The standard antimalarial drugs chloroquine (CQ) and artesunate (Arts) were used as the reference drug in all experiments. A full dose-response was performed for all compounds […] value). Test samples were tested at a starting concentration of 6mmol/L, which was then serially diluted 2-fold in growth medium to generate the tested concentration range. The same dilution technique was used for all samples. CQ and Arts were tested from a starting concentration of 1μg/mL. The highest concentration of solvent to which the parasites were exposed was <0.1% and has no measurable effect on the parasite viability (data not shown). The assay plate was incubated at 37 °C for 72h in a sealed gas chamber under 3% O2 and 4% CO2 with the balance being N2. After 72h, the wells in the assay plate were gently resuspended, and 15μL from each well was transferred to a duplicate plate containing 100μL of Malstat reagent and 25μL of nitroblue tetrazolium solution in each well. Plates were left to develop for 20 minutes in the dark and then absorbance of each well was quantified using a spectrophotometer at 620nm wavelength. The remaining population of parasites at each concentration of the test compound was determined by comparing the absorbance of each well to the absorbance of a well containing the drug-free control. Survival was plotted against concentration and the IC50 values were obtained using a non-linear dose-response curve fitting analysis via the Dotmatics software platform.2 In vitro Cytotoxicity Assay In vitro cytotoxicity was performed on the Chinese Hamster Ovarian cell line by measuring […] diphenyltetrazolium bromide (MTT) assay.3,4 The formation of tetrazolium salt was used as a measure of chemosensitivity and growth. 2 mg/mL stock solutions of the test compounds were prepared in DMSO and stored at -20 °C until required. The stock solution was subsequently diluted with the assay medium to make up an initial concentration of 100 μg/mL. The initial 100 μg/mL solution is serially diluted 10- S19 page 20: fold to attain six assay concentrations of 100-0.001 μg/mL. […] was used as the reference compound in this assay. The highest concentration of DMSO, which was used as the negative control, had no measurable effect on cell viability. After 44 hours of exposure of the cells to the test compounds, a solution of MTT was added. This was followed by an additional 4 hours of incubation at 37 °C. The assay plates were centrifuged, medium removed, and DMSO was added to the crystals. The amount of formazan was ascertained by measuring the absorbance at 540 nm. GraphPad Prism software was then used to generate IC50 values through a non-linear dose-response curve analysis. β-Hematin Inhibition Assay 20 mM stock solutions of controls and test compounds were made in DMSO. A solution […] was added to every well in columns 1-11 of a 96-well plate. 140 μL of water and 40 μL of 305.5 μM NP-40 were added to column 12 to mediate the formation of beta-hematin. 20 μL of test compounds (20 mM) were added to column 12 and 100 μL of this solution serially diluted to column 2, leaving column 1 blank (0 μM of test compound). 178.8 μL aliquot of hematin stock was suspended in 20 ml of a 1 M acetate buffer at pH 4.9. 100 μL of this hematin suspension was then added into each well, and the plates were incubated for ±5 hrs at 37°C. […]

[2] = In vitro cytotoxicity MTT assay; format: cell-based, Chinese hamster; settings: Chinese hamster, Chinese hamster ovarian (CHO) cells; MTT assay
Procedure: as §1

SMILES	SI (selectivity index) = IC50 CHO/IC50 PfNF54 [1]	IC50 at 44 h [2] [µM]
CCN(CCNc1cc2[nH]c(-c3ccc(C(F)(F)F)nc3)nc2cn1)Cc1ccc(Cl)cc1O [Compound 19, 5-Chloro-2-((ethyl(2-((2-(6-(trifluoromethyl)pyridin-3-yl)-1H-imidazo[4,5-c]pyridin-6-yl)amino)ethyl)amino)methyl)phenol]	>131.58	> 50
CCN(CCNc1cc2[nH]c(-c3cccc(C(F)(F)F)c3)nc2cn1)Cc1ccc(Cl)cc1O [Compound 14, 5-Chloro-2-((ethyl(2-((2-(3-(trifluoromethyl)phenyl)-1H-imidazo[4,5-c]pyridin-6-yl)amino)ethyl)amino)methyl)phenol]	466.25	37.3
CCN(CCNc1cc2[nH]c(C3CC3)nc2cn1)Cc1ccc(Cl)cc1O [Compound 5, 5-Chloro-2-(((2-((2-cyclopropyl-1H-imidazo[4,5-c]pyridin-6-yl)amino)ethyl)(ethyl)amino)methyl)phenol]	119.08	46.4
CCN(CCNc1cc2[nH]c(C3CCCC3)nc2cn1)Cc1ccc(Cl)cc1O [Compound 1, 5-Chloro-2-(((2-((2-cyclopentyl-1H-imidazo[4,5-c]pyridin-6-yl)amino)ethyl)(ethyl)amino)methyl)phenol]	79.76	27.1
CCN(CCNc1cc2[nH]c(C3(C)CC3)nc2cn1)Cc1ccc(Cl)cc1O [Compound 6, 5-Chloro-2-((ethyl(2-((2-(1-methylcyclopropyl)-1H-imidazo[4,5-c]pyridin-6-yl)amino)ethyl)amino)methyl)phenol]	>102.04	> 50
